Test results from patent publication US4927922A, “7β-(substituted)amino-3-substituted cephalosporanic acids and esters” (American Cyanamid Company, priority 1988, dated 1990).
Values after ≈ are worked out from the molar mass of the structure shown. Where two headings read alike, the source gives them in different places. Values belong to the compound of their own block, whether it stands above or below them.

Legend:
Assay in all cases: in vitro agar dilution test (MIC)
Format in all cases: cell-based
[1] = test system: Acinetobacter calcoaceticus MOR 84-43; conditions: MOR8443
Procedure: (§1) The compounds of the present invention are active antibacterial agents as established in the in vitro agar dilution test using Mueller-Hinton agar. The test compounds were dissolved in a mixture of dimethyl sulfoxide and aqueous sodium bicarbonate and applied as 1 ml of drug solution plus 9 ml of agar per plate. The innoculum was a 5 hour TSB shake culture diluted to 10^-2 with Mueller-Hinton broth and applied to the plates with a Steers' Replicator.
(§2) The results of this test on representative compounds of this invention (identified by Example Number) against a variety of microorganisms appear in Tables I and II in terms of minimal inhibitory concentration (MIC) in mcg/ml together with Cefotaxime, Cephalothin and Ampicillin as positive controls.

[2] = test system: Enterobacter aerogenes VGH 84-36; conditions: Klebsiella aerogenes, VGH8436
Procedure: as §1, §2

[3] = test system: Enterobacter cloacae K 84-10; conditions: K8410
Procedure: as §1, §2

[4] = test system: Enterobacter cloacae VGH 84-37; conditions: VGH8437
Procedure: as §1, §2

Enterococcus VGH 84-65 = conditions: VGH8465
Procedure: as §1, §2

[5] = test system: Escherichia coli ATCC 25922; conditions: ATCC25922, Mueller-Hinton agar, Table II
Procedure: as §1, §2

[6] = test system: Escherichia coli CMC 84-11; conditions: CMC8411, Mueller-Hinton agar
Procedure: as §1, §2

[7] = test system: Escherichia coli CMC 84-16; conditions: CMC8416
Procedure: as §1, §2

[8] = test system: Escherichia coli No. 311 N.A.; conditions: Mueller-Hinton agar
Procedure: as §1, §2

[9] = test system: Escherichia coli No. 311(Parent); conditions: Mueller-Hinton agar
Procedure: as §1, §2

[10] = test system: Klebsiella oxytoca MOR 84-28; conditions: MOR8428
Procedure: as §1, §2

[11] = test system: Klebsiella pneumoniae AD (MP)
Procedure: as §1, §2

[12] = test system: Klebsiella pneumoniae MOR 84-4; conditions: MOR844
Procedure: as §1, §2

[13] = test system: Morganella morganii CMC 84-37; conditions: CMC8437
Procedure: as §1, §2

[14] = test system: Morganella morganii VGH 84-11; conditions: VGH8411
Procedure: as §1, §2

[15] = test system: Proteus rettgheri CMC 84-41
Procedure: as §1, §2

[16] = test system: Pseudomonas aeruginosa 12-4-4 (MP)
Procedure: as §1, §2

[17] = test system: Pseudomonas aeruginosa VGH 84-4; conditions: VGH844
Procedure: as §1, §2

[18] = test system: Serratia marcesans F 35 (MP)
Procedure: as §1, §2

[19] = test system: Serratia marcesans K 84-18; conditions: K8418
Procedure: as §1, §2

[20] = test system: Staphylococcus aureus ATCC 25923; conditions: ATCC25923
Procedure: as §1, §2

[21] = test system: Staphylococcus aureus CMC 83-128; conditions: CMC83128
Procedure: as §1, §2

[22] = test system: Staphylococcus aureus CMC 83-131; conditions: CMC83131
Procedure: as §1, §2

[23] = test system: Staphylococcus aureus CMC 83-132; conditions: CMC83132
Procedure: as §1, §2

[24] = test system: Staphylococcus aureus Smith (MP)
Procedure: as §1, §2

[25] = test system: Staphylococcus epidermidis CMC 83-135; conditions: CMC83135
Procedure: as §1, §2

[26] = test system: Staphylococcus epidermidis IO 83-58; conditions: IO8358
Procedure: as §1, §2

[27] = test system: Staphylococcus saprophyticus VGH 84-50; conditions: VGH8450
Procedure: as §1, §2

[28] = Acinetobacter calcoaceticus MOR 84-43, Mueller-Hinton agar, read-out: MIC
[29] = Enterobacter aerogenes VGH 84-36, Mueller-Hinton agar, read-out: MIC
[30] = Enterobacter cloacae K 84-10, Mueller-Hinton agar, read-out: MIC
[31] = Enterobacter cloacae VGH 84-37, Mueller-Hinton agar, read-out: MIC
[32] = Enterococcus VGH 84-65, Mueller-Hinton agar, read-out: MIC
[33] = Escherichia coli CMC 84-16, Mueller-Hinton agar, read-out: MIC
[34] = Klebsiella oxytoca MOR 84-28, Mueller-Hinton agar, read-out: MIC
[35] = Klebsiella pneumoniae AD (MP), Mueller-Hinton agar, Table II, read-out: MIC
[36] = Klebsiella pneumoniae MOR 84-4, Mueller-Hinton agar, read-out: MIC
[37] = Morganella morganii CMC 84-37, Mueller-Hinton agar, read-out: MIC
[38] = Morganella morganii VGH 84-11, Mueller-Hinton agar, read-out: MIC
[39] = Proteus rettgheri CMC 84-41, Mueller-Hinton agar, read-out: MIC
[40] = Pseudomonas aeruginosa 12-4-4 (MP), Mueller-Hinton agar, Table II, read-out: MIC
[41] = Pseudomonas aeruginosa VGH 84-4, Mueller-Hinton agar, read-out: MIC
[42] = Serratia marcesans F 35 (MP), Mueller-Hinton agar, read-out: MIC
[43] = Serratia marcesans K 84-18, Mueller-Hinton agar, read-out: MIC
[44] = Staphylococcus aureus ATCC 25923, Mueller-Hinton agar, Table II, read-out: MIC
[45] = Staphylococcus aureus CMC 83-128, Mueller-Hinton agar, read-out: MIC
[46] = Staphylococcus aureus CMC 83-131, Mueller-Hinton agar, read-out: MIC
[47] = Staphylococcus aureus CMC 83-132, Mueller-Hinton agar, read-out: MIC
[48] = Staphylococcus aureus Smith (MP), Mueller-Hinton agar, Table II, read-out: MIC
[49] = Staphylococcus epidermidis CMC 83-135, Mueller-Hinton agar, read-out: MIC
[50] = Staphylococcus epidermidis IO 83-58, Mueller-Hinton agar, read-out: MIC
[51] = Staphylococcus saprophyticus VGH 84-50, Mueller-Hinton agar, read-out: MIC

MIC [1, 28]: > 256 µg/mL
MIC [2, 29]: > 256 µg/mL
MIC [3, 30]: > 256 µg/mL
MIC [4, 31]: > 256 µg/mL
MIC (Enterococcus VGH 84-65; [32]): 32 µg/mL (≈ 66.3 µM)
MIC [5]: 64 µg/mL (≈ 133 µM)
MIC [6]: 128 µg/mL (≈ 265 µM)
MIC [7, 33]: 128 µg/mL (≈ 265 µM)
MIC [8]: 64 µg/mL (≈ 133 µM)
MIC [9]: 64 µg/mL (≈ 133 µM)
MIC [10, 34]: 128 µg/mL (≈ 265 µM)
MIC [11, 35]: 16 µg/mL (≈ 33.2 µM)
MIC [12, 36]: 64 µg/mL (≈ 133 µM)
MIC [13, 37]: > 256 µg/mL
MIC [14, 38]: > 256 µg/mL
MIC [15, 39]: 4 µg/mL (≈ 8.29 µM)
MIC [16, 40]: > 256 µg/mL
MIC [17, 41]: > 256 µg/mL
MIC [18, 42]: > 256 µg/mL
MIC [19, 43]: > 256 µg/mL
MIC [20, 44]: 0.5 µg/mL (≈ 1.04 µM)
MIC [21, 45]: 1 µg/mL (≈ 2.07 µM)
MIC [22, 46]: 32 µg/mL (≈ 66.3 µM)
MIC [23, 47]: 32 µg/mL (≈ 66.3 µM)
MIC [24, 48]: ≤ 0.12 µg/mL
MIC [25, 49]: ≤ 0.12 µg/mL
MIC [26, 50]: 2 µg/mL (≈ 4.14 µM)
MIC [27, 51]: 1 µg/mL (≈ 2.07 µM)
SMILES: CCc1snnc1SCC1=C(C(=O)O)N2C(=O)[C@@H](NC(=O)Cc3cccs3)[C@H]2SC1 [Example 10, (6R-trans)-3-[[(5-Ethyl-1,2,3-thiadiazol-4-yl)thio]methyl]-8-oxo-7-[(2-thienylacetyl)amino]-5-thia-1-azabicyclo[4.2.0]oct-2-ene-2-carboxylic acid]

SMILES: CC1(C)S[C@@H]2[C@H](NC(=O)[C@H](N)c3ccccc3)C(=O)N2[C@H]1C(=O)O [Ampicillin, reference compound]
MIC [1, 28]: 32 µg/mL (≈ 91.6 µM)
MIC [2]: 256 µg/mL (≈ 733 µM)
MIC ([3]; Enterobacter cloacae): > 256 µg/mL
MIC ([4]; Enterobacter cloacae): > 256 µg/mL
MIC (Enterococcus VGH 84-65; [32]): 1 µg/mL (≈ 2.86 µM)
MIC [5]: 4 µg/mL (≈ 11.4 µM)
MIC [6]: 4 µg/mL (≈ 11.4 µM)
MIC ([7]; Escherichia coli): > 256 µg/mL
MIC [8]: 2 µg/mL (≈ 5.72 µM)
MIC [9]: 2 µg/mL (≈ 5.72 µM)
MIC [10, 34]: 32 µg/mL (≈ 91.6 µM)
MIC [11, 35]: 0.25 µg/mL (≈ 0.715 µM)
MIC [12, 36]: 32 µg/mL (≈ 91.6 µM)
MIC ([13]; Morganella morganii): 256 µg/mL (≈ 733 µM)
MIC ([14]; Morganella morganii): > 256 µg/mL
MIC [15, 39]: 0.5 µg/mL (≈ 1.43 µM)
MIC ([16]; Pseudomonas aeruginosa): > 256 µg/mL
MIC ([17]; Pseudomonas aeruginosa): > 256 µg/mL
MIC ([18]; Serratia): > 256 µg/mL
MIC [19, 43]: 64 µg/mL (≈ 183 µM)
MIC [20, 44]: ≤ 0.12 µg/mL
MIC [21, 45]: ≤ 0.12 µg/mL
MIC [22, 46]: 2 µg/mL (≈ 5.72 µM)
MIC [23, 47]: 1 µg/mL (≈ 2.86 µM)
MIC [24, 48]: ≤ 0.12 µg/mL
MIC [25, 49]: ≤ 0.12 µg/mL
MIC [26, 50]: 16 µg/mL (≈ 45.8 µM)
MIC [27, 51]: ≤ 0.12 µg/mL

MIC [1, 28]: > 256 µg/mL
MIC [2, 29]: 256 µg/mL (≈ 546 µM)
MIC [3, 30]: > 256 µg/mL
MIC [4, 31]: > 256 µg/mL
MIC (Enterococcus VGH 84-65; [32]): 32 µg/mL (≈ 68.3 µM)
MIC [5]: 64 µg/mL (≈ 137 µM)
MIC [6]: 64 µg/mL (≈ 137 µM)
MIC [7, 33]: 64 µg/mL (≈ 137 µM)
MIC [8]: 32 µg/mL (≈ 68.3 µM)
MIC [9]: 32 µg/mL (≈ 68.3 µM)
MIC [10, 34]: 256 µg/mL (≈ 546 µM)
MIC [11, 35]: 8 µg/mL (≈ 17.1 µM)
MIC [12, 36]: 32 µg/mL (≈ 68.3 µM)
MIC [13, 37]: > 256 µg/mL
MIC [14, 38]: > 256 µg/mL
MIC [15, 39]: 2 µg/mL (≈ 4.27 µM)
MIC [16, 40]: > 256 µg/mL
MIC [17, 41]: > 256 µg/mL
MIC [18, 42]: > 256 µg/mL
MIC [19, 43]: > 256 µg/mL
MIC [20, 44]: 0.5 µg/mL (≈ 1.07 µM)
MIC [21, 45]: 1 µg/mL (≈ 2.13 µM)
MIC [22, 46]: 32 µg/mL (≈ 68.3 µM)
MIC [23, 47]: 32 µg/mL (≈ 68.3 µM)
MIC [24, 48]: ≤ 0.12 µg/mL
MIC [25, 49]: ≤ 0.12 µg/mL
MIC [26, 50]: 2 µg/mL (≈ 4.27 µM)
MIC [27, 51]: 1 µg/mL (≈ 2.13 µM)
SMILES: Cc1snnc1SCC1=C(C(=O)O)N2C(=O)[C@@H](NC(=O)Cc3cccs3)[C@H]2SC1 [Example 8, (6R-trans)-3-[[(5-Methyl-1,2,3-thiadiazol-4-yl)thio]methyl]-8-oxo-7-[(2-thienylacetyl)amino]-5-thia-1-azabicyclo[4.2.0]oct-2-ene-2-carboxylic acid]

SMILES: CC(=O)OCC1=C(C(=O)O)N2C(=O)[C@@H](NC(=O)Cc3cccs3)[C@H]2SC1 [Cephalothin, reference compound]
MIC ([1]; Acinetobacter calcoaceticus): > 256 µg/mL
MIC [2]: > 256 µg/mL
MIC ([3]; Enterobacter cloacae): > 256 µg/mL
MIC ([4]; Enterobacter cloacae): > 256 µg/mL
MIC (Enterococcus VGH 84-65; Enterococcus): 32 µg/mL (≈ 80.7 µM)
MIC [5]: 16 µg/mL (≈ 40.4 µM)
MIC [6]: 8 µg/mL (≈ 20.2 µM)
MIC [7, 33]: 16 µg/mL (≈ 40.4 µM)
MIC [8]: 8 µg/mL (≈ 20.2 µM)
MIC [9]: 8 µg/mL (≈ 20.2 µM)
MIC ([10]; Klebsiella oxytoca): > 256 µg/mL
MIC ([11]; Klebsiella pneumoniae): 1 µg/mL (≈ 2.52 µM)
MIC ([12]; Klebsiella pneumoniae): 2 µg/mL (≈ 5.04 µM)
MIC ([13]; Morganella morganii): > 256 µg/mL
MIC ([14]; Morganella morganii): > 256 µg/mL
MIC [15]: 4 µg/mL (≈ 10.1 µM)
MIC ([16]; Pseudomonas aeruginosa): > 256 µg/mL
MIC ([17]; Pseudomonas aeruginosa): > 256 µg/mL
MIC ([18]; Serratia): > 256 µg/mL
MIC ([19]; Serratia): > 256 µg/mL
MIC ([20]; Staphylococcus aureus): 0.25 µg/mL (≈ 0.631 µM)
MIC ([21]; Staphylococcus aureus): ≤ 0.12 µg/mL
MIC ([22]; Staphylococcus aureus): 32 µg/mL (≈ 80.7 µM)
MIC ([23]; Staphylococcus aureus): 32 µg/mL (≈ 80.7 µM)
MIC ([24]; Staphylococcus aureus): ≤ 0.12 µg/mL
MIC ([25]; Staphylococcus epidermidis): ≤ 0.12 µg/mL
MIC ([26]; Staphylococcus epidermidis): 0.25 µg/mL (≈ 0.631 µM)
MIC ([27]; Staphylococcus saprophyticus): 0.25 µg/mL (≈ 0.631 µM)
